Results on 22 molecules are retold here after PubChem BioAssay (NCI).

Structures are written as SMILES.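 Cultured in 96-well plates, cells were exposed to test compound for 48 hours across five concentrations. At the TGI there is no net growth.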

Among the test systems are CAKI-1 renal; HOP-92 NSCLC; A498 renal; OVCAR-4 ovarian; PC-3 prostate; BT-549 breast.
Common to all, as to experiment: growth of human tumour cells (NCI), 48 h

As to `CC(=O)c1sc2c(c1OC(=O)c1ccccc1)c(=O)n(-c1ccccc1)c(=S)n2-c1ccccc1`, the TGI was more than 26.4 µM in the assay with CAKI-1 renal; 5.94 µM in the assay on HOP-92 NSCLC; 7.87 µM in the assay on A498 renal; 57.9 µM with OVCAR-4 ovarian; 14.9 µM with PC-3 prostate.

On to `CC(C)(Cl)C(Cl)CC/C(CBr)=C(\Cl)CBr` (stereo not given), for which the TGI with CAKI-1 renal was 7.08 µM; in the assay on HOP-92 NSCLC, 3.63 µM; with A498 renal, more than 58.2 µM; with BT-549 breast, 3.27 µM; with OVCAR-4 ovarian, 2.9 µM; in the assay on PC-3 prostate it was 8.56 µM.

For the molecule `CCCCCCC(O)C(=O)OC1C2C(CC1(C)C)C(O)C13OC1C(O)C1(CO1)[C@@]23C` (stereo not given in full), the TGI with CAKI-1 renal, in the assay with BT-549 breast, in the assay on OVCAR-4 ovarian and with PC-3 prostate was more than 100 µM each time.

As to `O=c1[nH]c(Br)nc2n[nH]nc12`, the TGI in the assay with CAKI-1 renal, with HOP-92 NSCLC, in the assay with A498 renal, with BT-549 breast, in the assay with OVCAR-4 ovarian and in the assay on PC-3 prostate was more than 100 µM throughout.

Take `C[n+]1ccc2/c(=C\C#N)c3ccccc3n21`: the TGI in the assay on CAKI-1 renal is more than 100 µM; in the assay with HOP-92 NSCLC, 63.2 µM; in the assay with BT-549 breast it was 52.8 µM; in the assay on OVCAR-4 ovarian, 72.9 µM; in the assay with PC-3 prostate it was more than 100 µM.

As to `C/C1=C\CC[C@@]2(C)O[C@@H]2C[C@@H]2[C@H](C/C(C)=C/CC1)OC(=O)[C@]21CO1`, the TGI with CAKI-1 renal, in the assay on HOP-92 NSCLC, with A498 renal, with BT-549 breast, in the assay with OVCAR-4 ovarian and in the assay on PC-3 prostate was more than 100 µM in each case.

For `NC1C2C=CC(C2)C1C(=O)O` (stereo not given), the TGI in the assay with CAKI-1 renal, in the assay with HOP-92 NSCLC, in the assay with A498 renal, in the assay with BT-549 breast, in the assay with OVCAR-4 ovarian and in the assay on PC-3 prostate was more than 100 µM in each case.

Take `Oc1ccccc1CNCc1ccccc1O`: the TGI with CAKI-1 renal, in the assay with HOP-92 NSCLC, in the assay with A498 renal, in the assay on BT-549 breast, with OVCAR-4 ovarian and in the assay with PC-3 prostate was more than 100 µM each time.

For the molecule `Cc1nnc(N)nc1C/C=C/C(C)Sc1ccc(Cl)cc1` (stereo not given), the TGI is 33.9 µM in the assay on CAKI-1 renal; 68.8 µM in the assay on HOP-92 NSCLC; 25.9 µM in the assay on A498 renal; more than 67.2 µM in the assay with BT-549 breast; 48 µM with OVCAR-4 ovarian; 17.8 µM in the assay on PC-3 prostate.

In the case of `C[C@@]12C[C@@H](c3ccccc3O1)N1CCCSC1=N2`, the TGI in the assay with CAKI-1 renal, in the assay on HOP-92 NSCLC, with A498 renal, with BT-549 breast, in the assay with OVCAR-4 ovarian and with PC-3 prostate was more than 100 µM in each case.

In the case of `CC(c1ccccc1)n1c2ccccc2c2c(N)ncnc21` (stereo not given), the TGI in the assay with CAKI-1 renal turned out to be 62.2 µM; in the assay with HOP-92 NSCLC, 27.6 µM; in the assay on A498 renal, 30.3 µM; with OVCAR-4 ovarian it was 31.2 µM; in the assay on PC-3 prostate, 34.4 µM.

For `O=C(O)c1ccccc1/C=N\N(CCO)C1=NCCN1`, the TGI in the assay with HOP-92 NSCLC, in the assay with BT-549 breast, in the assay on OVCAR-4 ovarian and with PC-3 prostate was more than 100 µM throughout.

As to `CCOC(OCC)[C@@H]1C[C@@H]2N(O[C@H](OC3CCCC3(c3ccccc3)c3ccccc3)[C@H](OC(C)=O)[C@@]2(CC)Cc2ccc(OC)c(OC)c2)O1` (stereo not given in full), the TGI in the assay with CAKI-1 renal, with BT-549 breast, in the assay on OVCAR-4 ovarian and in the assay on PC-3 prostate was more than 100 µM each time.

`Clc1ccc2c(c1)CC1C[N+]3=C(CCCCC3)C1=C2` (stereo not given): the TGI was more than 100 µM in the assay with CAKI-1 renal; 95.2 µM in the assay on HOP-92 NSCLC; more than 100 µM with A498 renal; more than 100 µM in the assay with BT-549 breast; more than 100 µM in the assay with OVCAR-4 ovarian; more than 100 µM with PC-3 prostate.

As for `COc1ccc2nc3c([N+](=O)[O-])ccc4c3c(c2c1)N=CN4CCN(C)C`, the TGI in the assay with CAKI-1 renal is 5.71 µM; in the assay on HOP-92 NSCLC, 26.1 µM; with A498 renal it was 15.4 µM; in the assay on BT-549 breast, 28.6 µM; with OVCAR-4 ovarian, 34.9 µM; in the assay with PC-3 prostate it was 35.4 µM.

In the case of `CC1=C(C(=O)NNC(=O)c2ccccc2O)CC(C(=O)NNC(=O)c2ccccc2O)=C(C)N1`, the TGI in the assay on CAKI-1 renal, in the assay on HOP-92 NSCLC, in the assay on BT-549 breast, in the assay with OVCAR-4 ovarian and in the assay on PC-3 prostate was more than 100 µM each time.

As to `O=C(Nc1ccccc1)c1cc2cc(CCl)ccc2oc1=O`, the TGI was more than 100 µM in the assay with CAKI-1 renal; more than 100 µM in the assay on HOP-92 NSCLC; 26.1 µM in the assay on A498 renal; more than 100 µM in the assay with BT-549 breast; more than 100 µM in the assay on OVCAR-4 ovarian; more than 100 µM in the assay with PC-3 prostate.

Take `CCOC(=O)NC(C(F)(F)F)(C(F)(F)F)P(=O)(OCC)OCC`: the TGI with HOP-92 NSCLC, with A498 renal, in the assay with BT-549 breast, in the assay on OVCAR-4 ovarian and in the assay on PC-3 prostate was more than 100 µM each time.

In the case of `S=C1C(CCCOCc2ccccc2)C2CCCC23CC2(CCN13)OCCS2` (stereo not given), the TGI in the assay with CAKI-1 renal, in the assay on HOP-92 NSCLC, with A498 renal, in the assay with OVCAR-4 ovarian and in the assay with PC-3 prostate was more than 10 µM each time.

In the case of `CCCc1cn2c(/C=N/N=C(N)N)c(-c3ccc([N+](=O)[O-])cc3)nc2s1`, the TGI with CAKI-1 renal was determined as 3.1 µM; in the assay on HOP-92 NSCLC it was 74 µM; with A498 renal it was 10.6 µM; with PC-3 prostate, 7.01 µM.

With `O=C(O)c1ccc(Nc2nc3ccc(C(F)(F)F)cc3nc2C(=O)O)cc1`, the TGI with CAKI-1 renal, in the assay on HOP-92 NSCLC, in the assay with OVCAR-4 ovarian and in the assay with PC-3 prostate was more than 100 µM in each case.

In the case of `CC(C)(C)C1CCC2c3c([nH]c4ccccc34)C3C(=O)N(c4cc(Cl)ccc4Cl)C(=O)C3C2C1` (stereo not given), the TGI in the assay with CAKI-1 renal, with HOP-92 NSCLC, in the assay on A498 renal, in the assay on BT-549 breast and with PC-3 prostate was more than 100 µM each time.
